In the NIST ThermoML archive (doi:10.1021/acs.jced.9b00540):

Experiment: xn = mol fraction of the nth substance listed
Conditions: Liquid

CCOC(F)(C(F)(F)C(F)(F)C(F)(F)F)C(F)(C(F)(F)F)C(F)(F)F (stereo not given) [2-trifluoromethyl-3-ethoxydodecafluorohexane] + CC(C)OC(C)C
viscosity [mPa·s]
Conditions | x1 = 0.25 | x1 = 0.375 | x1 = 0.5 | x1 = 0.625 | x1 = 0.75 | x1 = 1
293.15 K, 100 kPa, Capillary tube (Ostwald / Ubbelohde) method | 0.483 | 0.573 | 0.685 | 0.818 | 0.985 | 1.369
293.15 K, 20000 kPa, Falling or rolling sphere viscometry | 0.602 | 0.751 | 0.939 | 1.1 | 1.315 | 1.894
293.15 K, 40000 kPa, Falling or rolling sphere viscometry | 0.732 | 0.944 | 1.198 | 1.412 | 1.727 | 2.645
293.15 K, 60000 kPa, Falling or rolling sphere viscometry | 0.883 | 1.171 | 1.49 | 1.802 | 2.255 | 3.622
293.15 K, 80000 kPa, Falling or rolling sphere viscometry | 1.058 | 1.435 | 1.82 | 2.291 | 2.936 | 4.894
293.15 K, 100000 kPa, Falling or rolling sphere viscometry | 1.26 | 1.741 | 2.197 | 2.902 | 3.814 | 6.553
313.15 K, 100 kPa, Capillary tube (Ostwald / Ubbelohde) method | 0.386 | 0.441 | 0.526 | 0.617 | 0.735 | 0.983
313.15 K, 20000 kPa, Falling or rolling sphere viscometry | 0.476 | 0.598 | 0.701 | 0.821 | 0.979 | 1.356
313.15 K, 40000 kPa, Falling or rolling sphere viscometry | 0.587 | 0.748 | 0.894 | 1.059 | 1.292 | 1.869
313.15 K, 60000 kPa, Falling or rolling sphere viscometry | 0.712 | 0.917 | 1.118 | 1.339 | 1.668 | 2.51
313.15 K, 80000 kPa, Falling or rolling sphere viscometry | 0.853 | 1.104 | 1.376 | 1.669 | 2.119 | 3.31
313.15 K, 100000 kPa, Falling or rolling sphere viscometry | 1.014 | 1.312 | 1.677 | 2.058 | – | –
